Measured values reported in US9340477B2, “Process for production of hydroxystilbene derivative having physiological activity” (UHA MIKAKUTO CO., LTD., priority 2010, dated 2016).
pIC50: −log10 of the molar value.

How the values were obtained:
[1] = tested on: SCC-4 cells (human oral cancer cells, ATCC); assay: Cancer cell growth suppressing action using SCC-4 oral cancer cells (Cell counting kit-8); type: cell-based; settings: 6.3-100 μM, Cell counting kit-8, DMSO negative control, read-out: Cell growth suppressing ability (IC50)
Description: Next, in order to see the effect of the hydroxystilbene derivative to oral cancer cells, cancer cell growth suppressing action using SCC-4 cells (human oral cancer cells, ATCC) was tested.
For culturing the SCC-4 cells, a DMEM/F-12 (1:1) culture medium (manufactured by GIBCO) containing 400 ng/mL hydrocortisone (manufactured by Sigma-Aldrich Japan), 1% antibiotic-antimycotic (manufactured by GIBCO), and 10% FBS (Foetal Bovine Serum, manufactured by ATCC) was used. For the test, a collagen I coat 96 well plate for cell culture (manufactured by Japan BD) was used, and SCC-4 cells whose number of cells was adjusted to be 5×10^5 cells/mL were seeded at 100 μL per well. The cells were cultured under the conditions of 37° C. and 5% CO2 for 24 hours, and were used for the test in a confluent state of 80% or higher.
As samples, p-coumaric acid, ferulic acid, caffeic acid, sinapic acid, resveratrol, pterostilbene, piceatannol, and the UHA1027, the UHA1028, the UHA1123, the UHA1124, the UHA1125, the UHA7032, the UHA7033, the UHA7034, and the UHA9021 which were already purified were used. With respect to the preparation of the samples, each compound was dissolved in DMSO, and then prepared in such a manner as to achieve 0.63 mM, 1.25 mM, 2.5 mM, 5 mM, and 10 mM. The samples were added in such a manner that the final concentration in the SCC-4 cell culture solution was 6.3 μM, 12.5 μM, 25 μM, 50 μM, and 100 μM. Then, the test was started. A sample to which an equivalent amount of only DMSO as the solvent was added was used as a negative control.
The number of viable cells was quantified by an MTT method using a “Cell counting kit-8” in the same manner as in Example 15, and the concentration IC50 at which the cell growth is suppressed by 50% was calculated.

[2] = molecular target: rat intestine derived lipase; assay: Lipase inhibitory action test (Lipase kit S); type: biochemical; settings: rat intestine acetone powder lipase, 30° C., 10 minutes reaction
Description: In order to see the inhibitory action to lipase of the hydroxystilbene derivative, an inhibitory action test using rat intestine derived lipase was performed.
As lipase, one obtained by suspending 100 mg of rat derived intestine acetone powder (manufactured by Sigma-Aldrich Japan) in 1 mL of 100 mM citric acid buffer (pH 6.0), stirred at 4° C. for 1 hour, centrifuging the same (at 15000 rpm for 45 minutes at 4° C.), and then diluting the supernatant by 1500 times was used as a lipase solution.
As samples, p-coumaric acid, caffeic acid, sinapic acid, resveratrol, and the UHA1027, the UHA1028, and the UHA9021 which were already purified were used. With respect to the preparation of the samples, each compound was dissolved in DMSO, and then prepared in such a manner as to achieve 0.1 mM, 0.5 mM, 1 mM, 2 mM, and 4 mM.
For measuring the activity, a “Lipase kit S” (Trade name, manufactured by Dainippon Pharmaceutical Co., Ltd.) was used. First, in accordance with a preparation method described in the catalog of the Lipase kit S, a color developing liquid was prepared. Reaction liquids in which 70 μl of the color developing liquid, 2 μl of an esterase inhibitor, 10 μl of the lipase solution, and 10 μl of the samples (Final concentration: 10 μM, 50 μM, 100 μM, 200 μM, 400 μM, and 1000 μM) were mixed were prepared, preincubated at 30° C. for 5 minutes, and then 8 μl of a substrate solution described in the catalog was added. Then, a reaction was started. After reacting for 10 minutes, 150 μl of a reaction stop liquid prepared in accordance with the preparation method described in the catalog of the Lipase kit S was added to stop the reaction. The resultant substance was subjected to a measurement of absorbancy at a wavelength of 415 nm. A reaction liquid to which only DMSO as the solvent of the sample was added was used as a positive control and one to which 10 μl of 100 mM citric acid buffer (pH 6.0) was added instead of the lipase solution was used as a negative control. From the relationship between the lipase inhibition rate calculated based on the data obtained therefrom and the concentration of each compound, the concentration IC50 at which the lipase activity is inhibited by 50% was calculated.

[3] = tested on: HL-60 cells (human promyelocytic leokemia cells); assay: Cancer cell growth suppressing action using HL-60 cells (Cell counting kit-8); type: cell-based; settings: 24 hours, 6.3-100 μM, viable cells vs DMSO only, read-out: Cell growth suppressing ability to HL-60 (IC50)
Description: Next, in order to see the effect of the hydroxystilbene derivative to cancer cells, cancer cell growth suppressing action using HL-60 cells (human promyelocytic leokemia cells) was tested.
For culturing the HL-60 cells, an enriched culture medium “RPMI-1640” (manufactured by Sigma-Aldrich Japan) containing 4 mM glutamine (L-Glutamine, manufactured by Sigma-Aldrich Japan) and 10% FBS (Foetal Bovine Serum, manufactured by Biological Industries) was used. For the test, a 96-well plate for cell culture (manufactured by Corning Japan) was used, and the HL-60 cells whose number of cells was adjusted to be 5×10^5 cells/mL were seeded at 100 μL per well
As samples, p-coumaric acid, ferulic acid, caffeic acid, sinapic acid, resveratrol, pterostilbene, and the UHA1027, the UHA1028, the UHA1123, the UHA1124, the UHA1125, the UHA7032, the UHA7033, and the UHA9021 which were already purified were used. With respect to the preparation of the samples, each compound was dissolved in DMSO (Wako Pure Chemical Industries, Ltd.), and then adjusted in such a manner that the final concentration in the HL-60 cell culture solutions was 6.3 μM, 12.5 μM, 25 μM, 50 μM, and 100 μM. Then, the test was started.
The number of viable cells was quantified by an MTT method using a “Cell counting kit-8” (manufactured by DOJINDO LABORATORIES). 24 hours after starting the test, 10 μL of a Cell counting kit-8 solution was added to each well, and then sufficiently stirred. After a shading reaction for 1 hour, the absorbancy was measured at a measurement wavelength of 450 nm using a plate leader (Biorad Laboratories, Inc., “BIO-RAD Model 680”). Then, the cell viability was calculated based on the obtained data. The cell viability is a value obtained by setting the number of viable cells of the culture liquid to which only DMSO as a solvent was added to 100%, and then calculating the number of viable cells under the concentration of each compound as a relative value. From the relationship between the concentration of each compound and the cell viability, the concentration IC50 (50% inhibition concentration) at which the cell growth is suppressed by 50% was calculated.

[4] = Physicochemical properties: solubility in solvents

Structure (SMILES) | pIC50 [1] | pIC50 [2] | pIC50 [3] | Solubility: DMSO [4] | Solubility: Chloroform [4] | Solubility: Ethanol [4] | Solubility: Ethyl acetate [4] | Solubility: Methanol [4] | Solubility: Water [4]
Oc1cc(O)cc(/C=C/c2ccc(O)c(O)c2)c1 [Piceatannol, piceatannol, reference compound] | < 4.00 |  |  |  |  |  |  |  | 
O=C(O)/C=C/c1ccc(O)cc1 [p-coumaric acid, reference compound] | < 4.00 | < 3.00 | < 4.00 |  |  |  |  |  | 
O=C(O)/C=C/c1ccc(O)c(O)c1 [Coffeic acid, caffeic acid, reference compound] | < 4.00 | < 3.00 | < 4.00 |  |  |  |  |  | 
Oc1ccc(C=Cc2cc(O)cc(O)c2)cc1 [Resveratrol, resveratrol, reference compound] | < 4.00 | < 3.00 | 4.12 |  |  |  |  |  | 
COc1cc(/C=C/C(=O)O)cc(OC)c1O [Sinapic acid, sinapic acid, reference compound] | < 4.00 | < 3.00 | < 4.00 |  |  |  |  |  | 
COc1cc(/C=C/C(=O)O)ccc1O [Ferulic acid, ferulic acid, reference compound] | < 4.00 |  | < 4.00 |  |  |  |  |  | 
COc1cc(/C=C/c2ccc(O)cc2)cc(OC)c1 [Pterostilbene, pterostilbene, reference compound] | 4.13 |  | 4.22 |  |  |  |  |  | 

Other lines, results leading:

pIC50 [1] | pIC50 [2] | pIC50 [3] | Solubility: DMSO [4] | Solubility: Chloroform [4] | Solubility: Ethanol [4] | Solubility: Ethyl acetate [4] | Solubility: Methanol [4] | Solubility: Water [4] | Structure (SMILES)
4.30 |  |  | Soluble | Soluble | Soluble | Soluble | Soluble | Poorly soluble | CC(c1ccc(O)cc1)c1c(O)cc(/C=C/c2ccc(O)c(O)c2)cc1O (single isomer, unassigned) [UHA7034]
4.38 |  | 4.45 | Soluble | Soluble | Soluble | Soluble | Soluble | Poorly soluble | COc1cc(/C=C/c2ccc(O)cc2)cc(OC)c1C(C)c1ccc(O)cc1 (stereo not shown) [UHA7033]
4.43 |  | 4.51 | Soluble | Soluble | Soluble | Soluble | Soluble | Poorly soluble | COc1cc(/C=C/c2ccc(O)cc2)c(C(C)c2ccc(O)cc2)c(OC)c1 (stereo not shown) [UHA7032]
4.76 |  | 4.84 | Soluble | Soluble | Soluble | Soluble | Soluble | Poorly soluble | COc1cc(C(C)c2c(O)cc(O)cc2/C=C/c2ccc(O)cc2)ccc1O (stereo not shown) [UHA1124]
4.42 | 3.48 | 4.36 | Soluble | Soluble | Soluble | Soluble | Soluble | Poorly soluble | CC(c1ccc(O)cc1)c1c(O)cc(/C=C/c2ccc(O)cc2)cc1O (single isomer, unassigned) [UHA9021]
4.30 |  | 4.50 | Soluble | Soluble | Soluble | Soluble | Soluble | Poorly soluble | COc1cc(C(C)c2c(O)cc(/C=C/c3ccc(O)cc3)cc2O)ccc1O (stereo not shown) [UHA1123]
4.58 |  | 4.87 | Soluble | Soluble | Soluble | Soluble | Soluble | Poorly soluble | COc1cc(C(C)c2c(O)cc(/C=C/c3ccc(O)cc3)c(C(C)c3ccc(O)c(OC)c3)c2O)ccc1O (stereo not shown) [UHA1125]
4.54 | 3.35 | 5.23 | Soluble | Soluble | Soluble | Soluble | Soluble | Poorly soluble | CC(c1ccc(O)c(O)c1)c1c(O)cc(/C=C/c2ccc(O)cc2)cc1O (single isomer, unassigned) [UHA1027]
4.75 | 3.29 | 4.85 | Soluble | Soluble | Soluble | Soluble | Soluble | Poorly soluble | COc1cc(C(C)c2c(O)cc(/C=C/c3ccc(O)cc3)cc2O)cc(OC)c1O (stereo not shown) [UHA1028]
